The record followed here is patent US8962552B2, “Nanoparticles of therapeutic agents having low water solubility” (Centre Nationale de Recherche Scientifique, priority 2007, dated 2015).

For data set [1], the system named is KB 3.1 cells. In words: Tubulin immunofluorescence (spindle-poisoning activity) by confocal fluorescence microscopy. In kind it is cell-based, human. The settings on record: nanoparticles 5 μM, 14-16 hours, FIG. 1B. As to the method:
The characterization of this activity is performed by immunofluorescence according to the following protocol:
Day 1: KB 3.1 cells originating from a human cervical carcinoma, and HT-29 cells corresponding to a human colon cancer cell line, are deposited on 6-well plates at a density of 20 000 cells/well (final volume 2 ml RPMI plus FCS). The cells are incubated at a temperature of 37° C. and at 5% CO2.
Day 2: The cells are rinsed and the squalenoylpaclitaxel nanoparticles (concentration 5 μM) as prepared according to the protocol described in Example 3 are added thereto.
Day 3: After 14-16 hours, rinsing is performed twice with PBS and the extraction solution (Triton X-100 plus 0.5% PEM-PIPES 100 mM, EGTA 2 mM, MgCl2 2 mM, pH 6.8) is then added. After 4 minutes, rinsing is performed, followed by addition of 2 ml of a 3% solution of formaldehyde in PEM. 40 minutes later, rinsing is performed and 20% FCS in PBS is added over 30 minutes. Murine anti-α-tubulin FITC monoclonal antibody (diluted to 1:200) is then added and the mixture is incubated for 1 hour. It is finally rinsed with PBS and an analysis by confocal fluorescence microscopy (Leica TCS SP2) is performed.

The subject of data set [2] is mice (C57BL6). Type of data set: in vivo. The settings on record: 4 mg/ml suspension i.v., 4×50 mg/kg (paclitaxel equivalent). As to the method:
The nanoparticulate squalenoylpaclitaxel suspension as prepared in Example 3 (4 mg/ml) is directly injected intravenously into mice (C57BL6) at a dose of 4×50 mg/kg (paclitaxel equivalent); the injections take place on days 0, 5, 9 and 14. […] The direct intravenous injection of the Taxol solution (without dilution in 0.9% NaCl) leads to the immediate death of 100% of the treated mice. When the Taxol solution is prediluted in 0.9% NaCl, the maximum dose that can be injected is 20 mg/kg.

The nature of data set [3]: Nanoparticle size, polydispersity index and surface potential by light scattering. In kind it is physicochemical. As to the method: In general, the nanoparticles thus obtained have a mean size ranging from 30 to 650 nm, in particular from 30 to 500 nm and in particular from 50 to 250 nm, or even from 100 to 200 nm, measured by light scattering using a Coulter® N4MD nanosizer from Coulter Electronics, Hialeah, USA.
4 mg of squalenoylpaclitaxel are dissolved in […] of ethanol (2.5 mg/ml) and added dropwise with continuous stirring (speed of 500 rpm) to 1 ml of an aqueous solution containing 5% dextrose. The squalenoylpaclitaxel self-assembles in the form of nanoparticles with a size of between 100 and 200 nm. The ethanol is then completely evaporated off under reduced pressure using a Rotavapor® to obtain a nanoparticulate suspension of squalenoylpaclitaxel at a final concentration of 4 mg/ml.
Variable amounts (stated in Table 1 below) of squalenoylpaclitaxel are dissolved in 0.25 ml of tetrahydrofuran (THF). The solutions obtained are added dropwise with continuous stirring (speed of 500 rpm) to 0.25 ml of water. The squalenoylpaclitaxel precipitates in the form of nanoparticles between 100 and 200 nm in size. The THF is then completely evaporated off under reduced pressure using a Rotavapor® to obtain nanoparticulate squalenoylpaclitaxel suspensions whose size varies as a function of the concentration (see the table below).
100 μl of squalenoyldeoxyspergualine dissolved in ethanol (4 mg/ml) are added dropwise to 2 ml of distilled water with vigorous stirring. After evaporating off the ethanol under reduced pressure using a Rotavapor®, a suspension of nanoparticles 162 nm in size (polydispersity index 0.12 characterized by a surface potential of 27.38±2.60 mV) is obtained.
The mean size of the nanoparticles and the polydispersity index of the nanoparticles are determined at a temperature of 20° C. by light scattering with a zetasizer machine (Malvern Instruments, UK). The measurements are taken after diluting the nanoparticle suspension in MilliQ® water.

In data set [4] the test system is Madison's 109 (M109) murine pulmonary tumor cell line. Description: In vitro anticancer activity, MTT test on M109 cells. In kind it is cell-based. The settings on record: 72 hours, nanoparticles, read-out: 50% inhibitory concentration (IC50). As to the method:
(§1) The in vitro anticancer activity of the conjugates of squalenoyl/paclitaxel type in the form of nanoparticles is performed on Madison's 109 (M109) murine pulmonary tumor cell line. The M109 cells are cultured in RPMI 1640, supplemented with 10% fetal calf serum, 50 U·ml^−1 of penicillin and 50 μg·ml^−1 of streptomycin and 2 mM of L-glutamine. This analysis is performed using the 3-[4,5-dimethylthiazol-2-yl]-3,5-diphenyltetrazolium bromide (MTT) test, which measures the mitochondrial dehydrogenase activity. The cells in exponential growth phase are inoculated into a 96-well plate and preincubated for 24 hours at 37° C. in a humidified atmosphere with 5% CO2 in the air. Various dilutions of paclitaxel nanoparticles are added to the cells in the culture medium. Each dilution is tested three times. After 72 hours at 37° C., 200 μL of MTT solution in the cell culture medium (0.5 mg/ml) are added to each well. After incubating for 2 hours 30 minutes at 37° C., the culture medium is removed and the formazan crystals obtained are dissolved in 200 μL of an extraction solution (dimethyl sulfoxide). The absorbing power of the transformed dyestuff, which is proportional to the number of viable cells, is measured at 570 nm using a microplate reader (Metertech Σ 960, Fisher Bioblock, Illkirch, France). The percentage of surviving cells is calculated by determining the ratio of the absorbing power between the treated cells and the untreated cells.
(In general: Tetrazolium dyes change colour on reduction, which living cells bring about.)

For data set [5], the system named is L1210 WT murine leukemia cell line. In words: In vitro anticancer activity, MTT test on L1210 WT cells. Type of data set: cell-based. The settings on record: Mus musculus, 72 hours, nanoparticles, read-out: 50% inhibitory concentration (IC50). As to the method:
as §1, with “After incubating for 2 hours 30 minutes at 37° C., the culture medium is removed and the formazan crystals obtained are dissolved in 200 μL of an extraction solution (dimethyl sulfoxide).” left out
The in vitro anticancer activity of the squalenoyldoxorubicin nanoparticles is evaluated on an L1210 WT murine leukemia cell line. […]

Data set [6] deals with L1210 aggressive metastatic leukemia model. Description: In vivo anticancer activity, L1210 aggressive metastatic leukemia model. The settings on record: 13 mg·kg^−1 i.v. on days 1, 7 and 14, DBA/2 mice. The source says: DBA/2 mice (4 to 5 weeks old) weighing about 15-18 g were used for this study. As for Example 17, the mice are fed with standard mouse feed and water ad libitum. The L1210 aggressive metastatic leukemia model (a murine leukemia) is developed by intravenously injecting the L1210 cells at exponential growth (0.1×10^6 cells) as a suspension, into the mice. The tumor-bearing mice are divided into 2 groups of 5-6, i.e. the untreated mice and the mice treated with squalenoyldoxorubicin nanoparticles (13 mg·kg^−1, injected intravenously on days 1, 7 and 14, after injection of the tumor cells). After treatment, the mice are controlled regularly to check the differences in weight and the survival rate, these parameters making it possible to evaluate the efficacy of the anticancer activity.

The test system of data set [7] is M109 subcutaneous tumoral model (murine pulmonary tumor). In words: In vivo anticancer activity, M109 subcutaneous tumoral model. To be noted: 160 mg·kg^−1 i.v. for 5 consecutive days, CD2F1 mice, FIG. 2. The text has this:
CD2F1 mice (4-5 weeks old) weighing about 15-18 g were used for this study. The mice are fed with standard mouse feed and water ad libitum. The M109 subcutaneous tumoral model (murine pulmonary tumor) is developed by injecting the M109 cells at exponential growth (1×10^6 cells) as a suspension, under the skin, into the lower portion of the abdomen of the mice. A palpable tumor (about 50-100 mm^3) is allowed to grow at the site of injection. The tumor-bearing mice are divided into 2 groups of 5-6, i.e. the untreated mice and the mice treated with squalenoyldiglycolyl-paclitaxel nanoparticles 160 mg·kg^−1 (injected intravenously for 5 consecutive days). The mice are controlled regularly to check the difference in the volume of the tumors, and thus to evaluate the anticancer efficacy.

Setting [8] is: Example 9: 100 μl of 4 mg/ml ethanol solution added to 2 ml distilled water.
[9] abbreviates: 20° C., zetasizer, diluted in MilliQ water, compositions of Example 15.

As to monosqualenoylpaclitaxel, in data set [1], the “Formation of tubulin lumps (spindle-poisoning activity)” value was “formation of tubulin lumps is clearly visible”. Further, the Signs of toxicity result in data set [2] (days 0, 5, 9 and 14, C57BL6 mice) is given as “do not show any sign of toxicity”. Moreover, in data set [2] (days 0, 5, 9 and 14, period of at least one month), the Mortality result is listed as “No mortality is recorded”. For the same compound, the Polydispersity index in data set [3] (0.36 mmol squalenoylpaclitaxel in 0.25 ml THF added to 0.25 ml water) turned out to be 0.39; in data set [3] (0.88 mmol squalenoylpaclitaxel in 0.25 ml THF added to 0.25 ml water), 0.30; in data set [3] (1.76 mmol squalenoylpaclitaxel in 0.25 ml THF added to 0.25 ml water), 0.31. The results for the Diameter in data set [3] (0.36 squalenoylpaclitaxel in 0.25 ml THF added to 0.25 ml water), in data set [3] (0.88 squalenoylpaclitaxel in 0.25 ml THF added to 0.25 ml water) and in data set [3] (1.76 squalenoylpaclitaxel in 0.25 ml THF added to 0.25 ml water) were 151 ± 84 nm, 169 ± 92 nm and 177 ± 99 nm, respectively.
In data set [3] (setting [8]), `CC(C)=CCC/C(C)=C/CC/C(C)=C/CC/C=C(\C)CC/C=C(\C)CCC(=O)NCCCNCCCCNC(=O)C(O)NC(=O)CCCCCCNC(=N)N` (stereo not drawn) [squalenoyldeoxyspergualine] gave a Polydispersity index of 0.12, a Size of nanoparticles of 162 nm and a Surface potential of 27.38±2.60 mV.
Regarding “squalenoylsuccinylpaclitaxel [Example 10]”, in data set [4], the IC50 was found to be 72 nM. Also, in data set [3] (setting [9]), the Mean particle diameter worked out at 250.9 nm and the Polydispersity index came to 0.061.
As for squalenoylC22-paclitaxel [Example 13], the IC50 in data set [4] worked out at 7300 nM. In data set [3] (setting [9]), this compound yielded a Mean particle diameter of 239.3 nm and a Polydispersity index of 0.077.
For `COc1cccc2c1C(=O)c1c(O)c3c(c(O)c1C2=O)CC(O)(C(=O)COC(=O)CC/C(C)=C/CC/C(C)=C/CC/C=C(\C)CC/C=C(\C)CCC=C(C)C)CC3OC1CC(N)C(O)C(C)O1` (stereo not drawn) [Example 14, 14-squalenoyldoxorubicin], the IC50 in data set [5] stood at 291 nM. Besides, in data set [6] (FIG. 3), the “Anticancer activity (variations in weight of mice)” value is given as “demonstrate effective anticancer activity”. Moreover, the Survival rate entry in data set [6] (FIG. 4) is recorded as “improved survival rate”. In data set [3] (setting [9]), this compound gave a Mean particle diameter of 138.2 nm and a Polydispersity index of 0.325.
Consider “Squalenoylsuccinyl-PEG340-paclitaxel [Example 12]”, for which the IC50 in data set [4] was 490 nM. In data set [3] (setting [9]), this compound showed a Mean particle diameter of 643.9 nm and a Polydispersity index of 0.081.
Take “Squalenoyldiglycolyl-paclitaxel [Example 11]”: in data set [4], the IC50 was 175 nM. The “Anticancer activity: progression of tumor volume” value in data set [7] was “show anticancer activity by controlling the progression of the M109 tumors”. Further, in data set [3] (setting [9]), the Mean particle diameter was determined as 150.0 nm and the Polydispersity index is on record as 0.075.
